The results in this text go back to PubChem BioAssay (NCI).

Assay in all cases: NCI tumour cell line growth inhibition, 48 h
In assay [1] the test system is SNB-75 CNS.
For assay [2], the system named is MOLT-4 leukemia.
Assay [3] deals with SF-268 CNS.
For assay [4], the system named is HCT-116 colon.
In assay [5] the test system is NCI-H226 lung.
The subject of assay [6] is HOP-92 NSCLC.
In assay [7] the test system is TK-10 renal.
The subject of assay [8] is SK-OV-3 ovarian.
Assay [9] concerns UO-31 renal.

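Dose response: 5 concentrations. Exposure: 48 h. Format: 96-well plates. Endpoint: linear interpolation; highest concentration if not reached. GI50 marks 50% less growth. TGI: total growth inhibition.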

In the case of `Nc1n[nH]c(CCc2nc(N)n[nH]2)n1`, the TGI in assay [1], in [2], in assay [3], in assay [4], in [5] and in assay [6] was over 100 µM each time. The TGI in assay [7], in assay [8] and in assay [9] was over 100 µM each time.
Regarding `Cc1cc2c(C)n(Cc3ccc(Cl)cc3Cl)nc2c(C(=O)O)c1C`, the TGI in assay [1], in [2], in assay [3], in [4], in assay [5] and in [6] was over 100 µM in each case. For the same compound, the TGI in assay [7], in [8] and in assay [9] was over 100 µM each time.
`C=C1[C@@H]([C@@]2(C)C=CC(=O)C(C)(C)[C@@H]2CC(=O)OC)CC[C@@]2(C)C(c3ccoc3)OC(=O)[C@H]3O[C@]132` (stereo partly drawn): the TGI in assay [1], in [2], in [3], in assay [4], in [5] and in assay [6] was over 100 µM each time. The TGI in assay [7], in assay [8] and in assay [9] was over 100 µM throughout.
In the case of `COc1cc2c3c(n(CCCN=[N+]=[N-])c(=O)c2cc1OC)-c1ccc(N(C)C)cc1C3=O`, the GI50 was 55.9 µM in assay [1]; over 100 µM in [2]; over 100 µM in [3]; over 100 µM in assay [5]; over 100 µM in [6]; over 100 µM in assay [7]. The GI50 in assay [8] and in assay [9] was over 100 µM in each case. For the same compound, the TGI in assay [1], in [2], in [3], in assay [5], in assay [6] and in [7] was over 100 µM in each case. Besides, the TGI in [8] and in assay [9] was over 100 µM throughout.
With `CC1=C(C(=O)Nc2ccc([N+](=O)[O-])cc2)C(c2ccccc2F)C(C(=O)Nc2ccc([N+](=O)[O-])cc2)=C(C)N1`, the TGI is 83.9 µM in [1]; 27.4 µM in assay [2]; over 100 µM in assay [3]; 31.5 µM in [4]; 79.7 µM in assay [5]; 31.1 µM in assay [6]. Further, the figures for the TGI in assay [7], in assay [8] and in assay [9] were over 100 µM, 79.7 µM and 51.7 µM, respectively.
Turning to `CCCCCCC(/C=N/O)C(C)(O)CCC` (stereo not drawn), the TGI in assay [1], in assay [2], in [3], in assay [4], in assay [5] and in [7] was over 100 µM in each case. The same compound came in with a TGI in [9] of over 100 µM.
In the case of `CCOC(=O)C1=C(Nc2ccc(Cl)c(Cl)c2)OC/C1=N\NS(=O)(=O)c1ccc(C)cc1`, the TGI in assay [1], in [2], in [3], in assay [4], in assay [5] and in assay [7] was over 100 µM throughout. Also, the TGI in [8] was over 100 µM; in assay [9], 85.6 µM.
As to `O=[N+]([O-])c1ccc(Cl)cc1C1SCc2nc3ccccc3n21` (stereo not drawn), the TGI was 70.7 µM in [1]; over 100 µM in assay [2]; over 100 µM in assay [3]; over 100 µM in assay [4]; over 100 µM in [7]; over 100 µM in assay [8]. In [9], this compound displayed a TGI of over 100 µM.
Turning to `Cc1c(Sc2ccccc2)[n+](=O)c2cc(Cl)c(Cl)cc2n1[O-]`, the GI50 in assay [1] is over 100 µM; in [2], 15 µM; in [3], over 100 µM; in [4], 27.4 µM; in assay [5] it was over 100 µM; in assay [6], 20 µM. Besides, the GI50 was 26.1 µM in assay [7], over 100 µM in assay [8] and over 100 µM in assay [9]. In addition, the TGI is over 100 µM in assay [1]; 33.3 µM in [2]; over 100 µM in assay [3]; 59.4 µM in assay [4]; over 100 µM in assay [5]; 51.4 µM in assay [6]. The TGI is 70.6 µM in assay [7], over 100 µM in assay [8] and over 100 µM in [9].
In the case of `COC(=O)CCC(=O)NC1C2CC3CC(C2)CC1C3` (stereo not drawn), the TGI in assay [1] is over 95.4 µM; in [2] it was over 100 µM; in assay [3], over 100 µM; in [4], over 100 µM; in assay [6], over 100 µM; in [7] it was over 100 µM. In addition, the TGI in assay [8] and in assay [9] was over 100 µM in each case.
On to `Cc1cccc(Nc2cnc(N)nc2N)c1`, for which the TGI in assay [1], in assay [2], in [4], in [5], in [6] and in assay [7] was over 100 µM throughout. Also, the TGI in assay [8] and in assay [9] was over 100 µM in each case.
